# Results published in patent US20030005484A1, “Microbiocidal and pesticidal aromatic aldehydes” (ProGuard, Inc., priority 1994, published 2003).
# Legend:
# [1] = system: powdery mildew; assay: powdery mildew on Chardonnay grapes; assay type: in vivo
# Procedure: (§1) The effect of 0.3% and 0.6% cinnamic aldehyde on pacific mites on grapevine leaves was examined cinnamic aldehyde was diluted to 0.3% and 0.6% in water. Each formulation was sprayed onto a 1 acre block of Chardonnay wine grapes with a tractor-drawn 500 gal. hydraulic sprayer at 150 psi at a rate of 150 gal./acre. As a control, a 10-acre block of Chardonnay wine grapes was treated the same day as the test formulations with the conventional treatment (Omite) per label directions. The number of mites was counted the day prior to spraying and 4 days after spraying. […] In fact, both concentrations reduced the number of mites to a larger extent than the positive control, conventional treatment, Omite. The 0.6% rate nearly eliminated live mites on grapevines. […] The 0.6% was slightly beter than the 0.3 % cinnamic aldehyde with respect to powdery mildew control.
# The effect of 0.4% cinnamic aldehyde on powdery mildew and pacific mites on grapes was examined. Cinnamic aldehyde was diluted to 0.4% in water and sprayed onto a 1.8 acre test plot of Chardonnay grapevines with a tractor drawn, PTO powered sprayer, spraying at approximately 100 psi at a rate of 150 gal./acre. A 3 acre untreated plot served as a negative control. Additional controls included treatment of a 3.8 acre plot with stylet oil and a plot treated with a mix of Rubigan, Omite, and stylet oil, which cost appriximately $60.00/acre. Spray cards were placed randomly through the test block. Ten fruit clusters, which were generally completely covered with powdery mildew, in each of the four fields were flagged. […] Therefore, cinnamic aldehyde was effective at controlling both powdery mildew and pacific mites on grapes.
# [2] = system: Roll Lesion nematode; assay: vineyard grape vines, nematode infestation: roll lesion; assay type: in vivo
# Procedure: The subject formulations were tested for ability to reduce grape vine infestation by root knot, ring, stubby root, and roll lesion nematodes. Grape vines (Harmony rootstock) in a vinyard were treated with 1000 ppm or 3000 ppm cinnamaldehyde in 2% Tween 80, the commercial anti-nematode agent Nemacur, or a formulation blank. The extent of nematode infestation was determined at the time of treatment and at 30 and 60 days post-treatment.
# [3] = system: pacific mites; assay: pacific mites on Chardonnay grapevines; assay type: in vivo; details: for PERCENT INHIBITION / POST-SPRAY MITES: 150 gal./acre, 4 days after spraying; for PRE-SPRAY MITES: baseline
# Procedure: as §1
# [4] = system: leafhoppers (western grape leafhopper and Virginia creeper leafhopper nymphs); assay: leafhoppers on grapevines, 1% and 2% spray; assay type: in vivo; details: for mean number of leafhoppers per leaf: one day after treatment, across cultivars, control 26.53
# Procedure: Treatment of leafhoppers (western grape leafhopper (WGL) and Virginia creeper leafhopper nymphs(VCLH)) on grapevines with cinnamic aldehyde was conducted to evaluate the protective effect of cinnamic aldehyde in different concentrations against leafhoppers on plants. A single application of 1% or 2% cinnamic aldehyde in 0.1% Tween-20 was sprayed onto the leaves of grapevines of different grape varietals (Cabernet Sauvignon, Chardonnay, Emerald Reisling and Pinot Noir) with a backpack CO2 powered sprayer at the field equivalent rate of approximately 150 gal./acre (0.5 gal. per treatment plot). Coverage on the bottom of grape leaves, where most leafhopper nymphs feed, ranged from 70%-80%. The number of leafhoppers on the leaves was counted prior to spraying and 1 day after spraying. Leafhopper numbers on grape vines were assessed by sampling 2 leaves from each of 3 grape vines per treatment (with a single vine buffer between each treatment), for which 2-3 replicates per treatment were examined. Control plants were untreated. Both concentrations of cinnamic aldehyde reduced the mean number of leafhoppers per leaf as compared to the control. The mean number of leafhoppers was defined as the sum of WGL plus VCLH per leaf.
# [5] = system: grape phylloxera; assay: grape phylloxera adult and nymphal mortality, root dip; assay type: in vivo, Daktulosphaira vitifoliae; details: for mortality of adults and nymphs: root dip, 5 days
# Procedure: Approximately twenty four eggs of phylloxera were allowed to develop for up to 30 days on standard excised grape roots. At around 30 days, some of the insects were nymphs while others were adults. New eggs were removed during the process. Insect infected roots were submerged into a test formula for 6 seconds then set aside to dry in the air. The percentage of live insects, as defined by growth, oviposition or limb movement, was determined after 5 days. An insect was considered dead if it abandoned its feed site.
# In an initial test, doses of 20,000 ppm cinnamic aldehyde in water (i.e., 2% cinnamic aldehyde) with various additives were evaluated. Cinnamic aldehyde without any additives produced 83.3% mortality. With-1% Tween 80 added, 91.7% mortality was seen. With 6% NaHCO3 added to a solution of 2% cinnamic aldehyde, 91.7% mortality was seen. With 1% Tween 80 and 6% NaHCO3 added to a solution of 2% cinnamic aldehyde, 100% mortality was seen. Water with no additives produced no mortality, while a positive control solution of 250 ppm malathion in water gave 100% mortality.
# For nymph and adult tests, eggs were placed on excised root pieces similar to those used for rearing purposes and these were sealed in Petri dishes and held at 24° C. for 18-25 days to allow insects to hatch, initiate feeding sites and develop. At about this time about half the population was in the adult stage. Prior to testing, the population on each root was determined as well as the developmental stage of each insect. Eggs were removed. These root pieces were then dipped for 5 sec into test solutions and allowed to air dry before they were returned to Petri dishes, sealed and placed back in the temperature chamber at 24° C. Mortality was determined after 5 days. Insects were considered dead if they appeared black or desiccated and if they had not developed since the pre-treatment reading and had laid no or few new eggs.
# [6] = system: Silverleaf Whitefly (Bemisia argentifolii); assay: silverleaf whitefly 1st and 2nd instars on poinsettia; assay type: in vivo; details: 0.5% cinnamic aldehyde and […] Tween 20, 48 hours
# Procedure: Clip cages were set on poinsettia plants leaves to capture white fly adults which then were allowed to oviposit for 48 hours. Four plants per treatment or control were put into an environmental chamber and the eggs allowed to incubate for 5 days until a majority of the eggs had hatched to first and second instar. Three treatments at 0.5% cinnamic aldehyde and 0.25% Tween 20 (T1, T2, T3) and three control treatments of 0.25% Tween 20 only (C1, C2, C3) were sprayed to run off on each plant. Mortality was recorded after 48 hours (see Table 23).
# [7] = CNMA 0.4% in water, 150 gal./acre, controls stylet oil, chemical mix
compound,measurement,setting,value
O=C/C=C/c1ccccc1 [cinnamic aldehyde],% INHIBITION (PM),[1]; [7],88%
same,PM POST-SPRAY,[1]; [7],10
same,PM PRE-SPRAY,"[1]; baseline, CNMA 0.4% plot, stylet oil plot, chemical mix plot",84
same,incidence of powdery mildew (not quantitated),"[1]; both treatments, 0.3% and 0.6% in water, Chardonnay",markedly reduced
same,"Roll Lesion, nematodes per gram root","[2]; 1000 ppm in 2% Tween 80, 30 days post-treatment",2.7 per gram root
same,"Roll Lesion, nematodes per gram root","[2]; 1000 ppm in 2% Tween 80, 60 days post-treatment",0 per gram root
same,"Roll Lesion, nematodes per gram root","[2]; 1000 ppm in 2% Tween 80, day 0 (time of treatment)",2.9 per gram root
same,"Roll Lesion, nematodes per gram root","[2]; 3000 ppm in 2% Tween 80, 30 days post-treatment",0.56 per gram root
same,"Roll Lesion, nematodes per gram root","[2]; 3000 ppm in 2% Tween 80, day 0 (time of treatment)",1.0 per gram root
same,PERCENT INHIBITION,[3]; 0.3% CNMA in water,89%
same,POST-SPRAY MITES,[3]; 0.3% CNMA in water,4.5
same,PERCENT INHIBITION,[3]; 0.6% CNMA in water,98%
same,POST-SPRAY MITES,[3]; 0.6% CNMA in water,0.5
same,PRE-SPRAY MITES,[3]; day prior to spraying 0.3% CNMA,41.4
same,PRE-SPRAY MITES,[3]; day prior to spraying 0.6% CNMA,32.5
same,mean number of leafhoppers per leaf,[4]; 1% in 0.1% Tween-20,4.33 leafhoppers per leaf
same,mean number of leafhoppers per leaf,[4]; 2% in 0.1% Tween-20,2.13 leafhoppers per leaf
same,MEAN LEAFHOPPERS/LEAF,"[4]; Cabernet, 1% CNMA, control 15.33",3.0
same,MEAN LEAFHOPPERS/LEAF,"[4]; Chardonnay, 2% CNMA, control 23.75",3.83
same,MEAN LEAFHOPPERS/LEAF,"[4]; Emerald Reisling, 1% CNMA, control 51.12",5.67
same,MEAN LEAFHOPPERS/LEAF,"[4]; Pinot Noir, 2% CNMA, control 19.44",1.0
same,mortality of adults and nymphs,[5]; 2% cinnamic aldehyde with 1% Tween 80,91.7%
same,mortality of adults and nymphs,[5]; 2% cinnamic aldehyde with 1% Tween 80 and 6% NaHCO3,100%
same,mortality of adults and nymphs,[5]; 2% cinnamic aldehyde with 6% NaHCO3,91.7%
same,mortality at 20000 ppm,"[5]; Daktulosphaira vitifoliae, 120 h, 2% cinnamic aldehyde (20,000 ppm) in water, no additives, roots submerged 6 seconds, read after 5 days, read-out: mortality of adults and nymphs",83.3%
same,"Alive, total of T1-T3",[6],35
same,"Dead, total of T1-T3",[6],363
same,Mortality (%),"[6]; T1-T3 combined, Tween 20 control 9%",91%
